Laboratory results as given in patent US20180289655A1, “Methods and Compositions for the Intravenous Administration of Fumarates for the Treatment of Neurological Diseases” (Biogen MA Inc., priority 2015, published 2018).
Entries after “also recorded” stand apart in the source; their conditions may differ. Counter-ions that a name gives are not always drawn.

Tests used:
[1] = 24-hour equilibrium solubility of DMF in water; type: physicochemical; conditions: thermodynamic from solid
Protocol: Samples were then filtrated at the measuring temperatures through a 0.2 μm filter unit, and the concentrations of the filtrate were determined using HPLC. The solids in equilibrium were confirmed, by FT-Raman technique, to be the same form as the starting material.

[2] = tested on: blood cell populations; test: Complete blood count (CBC) with differential after IV dosing; type: in vivo, C57BL/6 mice
Protocol: Whole blood samples (250 μL) were collected in EDTA tubes at indicated time points after dosing, and were maintained at 4° C. until analysis for CBC with differential at Charles River Laboratories (analyzed within 24-36 hours from time of collection).
Statistical analyses on blood cell fractions were not completed due to the overall variability and low number of replicates for the samples in this pilot study.
A CBC with differential panel was performed at 10 minutes post-last dose via facial vein bleeding, and at 2 hours after the last dose, pharmacodynamic Nrf2 transcriptional responses were analyzed in tissues from the same animals. Histopathology was also performed on regions of the tail in a pilot toxicology study.

[3] = Solubility of DMF in 20% Captisol; type: physicochemical; conditions: aqueous with cosolvent or surfactant or cyclodextrin, thermodynamic from solid, room temperature (heated at 50° C., cooled, filtered)
Protocol: The preparations were heated at 50° C. for 5-10 min, followed by cooled to room temperature.

[4] = MMF exposure in malonate model 30 min after last oral dose of DMF; type: in vivo, Sprague-Dawley rats; conditions: 30 minutes after last oral dose of DMF, all doses
Protocol: The study and blank brain samples was transferred into Tissue Tubes (TT1) (purchased from Covaris, Inc) and attached to a borosilicate glass tube and placed on dry ice for a minimum of 15 minutes. The samples were pulverized using the Cryoprep System (Covaris Inc.) and transferred to glass tube prior to homogenization. For every 1 part (i.e. 100 mg) of tissue, 2 parts (i.e. 200 μL) of water with 15 mg/mL NaF was added to each glass tube. The tissues were homogenized at 4° C. using Covaris E210 for approximately 3 minutes per sample. The Covaris settings were as follows: Duty Cycle 20%, Intensity 10, and Cycles/Burst 1000. After homogenization […] acetonitrile was added to each glass tube, which was equal to the volume of water added in previously. The homogenates were homogenized with the E210 for an additional 30 sec per sample. […]
Study plasma samples were on ice. […] A 50 μL aliquot of sample (study samples, blank control, calibration standard or QC sample) was manually transferred into a 96-well plate according to a pre-determined layout. […]
The HPLC system used consisted of an Agilent 1200 binary pump with a Leap CTC PAL refrigerated autosampler. […] The instrument was equipped with TIS source in negative mode and the analyte was monitored in the MRM mode. […] The concentrations for unknown samples were calculated against Standards. […]

[5] = tested on: malonate-induced striatal lesion in rats; test: Immunofluorescence microscopy (NeuN, GFAP) of lesioned rat brain sections; type: in vivo, Sprague-Dawley rats; conditions: DMF p.o. 100 mg/kg and vehicle
Protocol: For tissue to be analyzed by immunofluorescence, animals were anesthetized and transcardially perfused with 4% paraformaldehyde. Brains were removed and post-fixed overnight at 4° C. Tissue was then transferred to 30% sucrose in PBS. Serial 25-μM frozen sections were cut in the coronal plane and air-dried onto gelatin-coated glass slides. All tissue sections were washed in PBS and blocked with 5% normal goat serum in solution with 0.1% Triton X-100/PBS for 45 minutes at room temperature. Sections were then incubated with monoclonal anti-NeuN (1:500; Millipore, Temecula, Calif., USA) for neurons and polyclonal anti-glial fibrillary acidic protein (GFAP) (1:600) for astrocytes in blocking solution overnight at 4° C. Secondary antibody incubations were for 1 hour at room temperature. All immunofluorescence images were acquired with Openlab and Spectrum software.

[6] = Study 3, DMF IV 30 mg/kg once daily x5
[7] = Study 3, DMF IV 30 mg/kg once daily x5, vs vehicle

## COC(=O)/C=C/C(=O)OC [DMF, dimethyl fumarate]
[1]; 20 ° C., 24 hours
  solubility at 24 h: 2700 µg/mL
[1]; 35 ° C., 24 hours
  solubility at 24 h: 3500 µg/mL
[1]; 50 ° C., 24 hours
  solubility at 24 h: 5500 µg/mL
[1]; ambient temperature
  solubility at 24 h: 2700 µg/mL
[2]; Study 2, single IV dose DMF 30 mg/kg or MMF 27.08 mg/kg, 2-hour time point
  Reduction in white blood cell counts (neutrophils, lymphocytes, monocytes, eosinophils, basophils): did not specifically coincide with DMF or MMF treatment
[2]; Study 2, single IV dose DMF 30 mg/kg or MMF 27.08 mg/kg, 10 minutes, 2 and 6 hours
  Effect on red blood cells, hemoglobin, hematocrit, mean corpuscular volume, platelets: no effect on red blood cells, hemoglobin, hematocrit, mean corpuscular volume, or platelets
[2]; [6]
  Effect on red blood cells, hemoglobin, hematocrit, mean corpuscular volume, platelets: no effects on red blood cells, hemoglobin, hematocrit, mean corpuscular volume, or platelets
  White blood cells: general reduction in white blood cells
[2]; [7]
  Decrease in lymphocytes: 38%
  Decrease in monocytes: 60%
[3]
  solubility: 4110 µg/mL
[4]
  MMF concentration in plasma, brain and CSF: significantly higher in the plasma as compared to both, the Brain and the CSF; also recorded: dose-dependent increase in plasma, CSF and brain concentration of MMF
[5]
  Astrocytes (GFAP) near the lesion border: Astrocytes appear to survive in both vehicle and DMF treated animals
